Laboratory results reported in patent publication US20240415819A1, “MACROCYCLIC COMPOUNDS AS PROTEASOME SUBUNIT BETA TYPE-5 INHIBITORS” (Lead Discovery Center GmbH, priority 2021, published 2024).

Key:
[1] = target: T1, β5 subunit of the human constitutive proteasome (CPS) (Homo sapiens, UniProt P28074); assay: β5 inhibition assay, human constitutive proteasome (Suc-LLVY-AMC); type: biochemical; conditions: IC50 class, Suc-LLVY-AMC substrate
T1 construct: purchased Boston Biochem E-360
Description: The enzymatic activity of the β5 subunit of the human constitutive proteasome (CPS) is analyzed. In another assay, which differs from the assay of the human constitutive proteasome only in using the human immunoproteasome (IPS) the enzymatic activity of the β5 subunit of the human immunoproteasome (IPS) is analyzed. […] Inhibition is indicated as IC50 [nM] (“-”=not measured).

[2] = target: T2, β5 subunit of the human immunoproteasome (IPS) (Homo sapiens, UniProt P28062); assay: β5 inhibition assay, human immunoproteasome (Suc-LLVY-AMC); type: biochemical; conditions: IC50 class, Suc-LLVY-AMC substrate
T2 construct: purchased Boston Biochem E-370
Method in brief: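 β5 activity is read as liberated AMC fluorescence (355/460 nm) after 4 h dark reaction at RT with 22.6 μM Suc-LLVY-AMC, stopped by 1 μM bortezomib. Beforehand, 1 nM human IPS and compound sat 10 min at RT in HEPES pH 7.5 buffer containing NaCl, 0.02% SDS and DTT.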

[3] = tested on: hPMBC; assay: Chymotrypsin-like ProteasomeGlo assay in hPBMC; type: cell-based; conditions: Homo sapiens; read-out: Pglo hPBMC
Method in brief: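 IC50 derived from luminescent chymotrypsin-like proteasome activity (Suc-LLVY-Glo substrate plus luciferin detection reagent). Measured after 105 min compound exposure at 37 °C, 5% CO2. Cells were human B cells purified from buffy-coat PBMC.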

| IC50 [1] [nM] | IC50 [2] [nM] | IC50 [3] [nM] | Structure (SMILES) |
| --- | --- | --- | --- |
| 100 to 500 | < 100 | 100 to 500 | CC(=O)N[C@H]1CC(=O)N2CCOC(CCOc3ccc(C)c(c3)CNC(=O)[C@H](CCc3ccccc3)NC1=O)C2 (stereo partly drawn) [Compound 258, N-((9S,12S)-5^4-methyl-8,11,14-trioxo-9-phenethyl-4-oxa-7,10-diaza-1(2,4)-morpholina-5(1,3)-benzenacyclotetradecaphane-12-yl)acetamide] |
| 500 to 1000 | < 100 | 100 to 500 | CC(=O)N[C@H]1CCCC(=O)N2CC3CC(Oc4ccc(C)c(c4)CNC(=O)[C@H](CCc4ccccc4)NC1=O)C3C2 (stereo partly drawn) [Compound 191, N-((11R,15S,7S,10S)-3^4-methyl-6,9,14-trioxo-7-phenethyl-2-oxa-13,5,8-triaza-1(7,3)-bicyclo[3.2.0]heptana-3(1,3)-benzenacyclotetradecaphane-10-yl)acetamide] |
| < 100 | < 100 | < 100 | Cc1ccc2cc1CNC(=O)[C@H](CCc1ccccc1)NC(=O)[C@@H](NC(=O)[C@@H](N)Cc1ccccc1)CC(=O)N1CCCC(CCO2)C1 (stereo partly drawn) [Compound 179, (2R)-2-amino-N-((9S,12S)-5^4-methyl-8,11,14-trioxo-9-phenethyl-4-oxa-7,10-diaza-1(3,1)-piperidina-5(1,3)-benzenacyclotetradecaphane-12-yl)-3-phenylpropanamide-] |
| < 100 | < 100 | < 100 | Cc1ccc2cc1CNC(=O)[C@H](CCc1ccccc1)NC(=O)[C@@H](NC(=O)C(C)(CO)CO)CC(=O)N1CCCC(CCO2)C1 (stereo partly drawn) [Compound 286, 3-hydroxy-2-(hydroxymethyl)-2-methyl-N-((9S,12S)-5^4-methyl-8,11,14-trioxo-9-phenethyl-4-oxa-7,10-diaza-1(3,1)-piperidina-5(1,3)-benzenacyclotetradecaphane-12-yl)propanamide] |
| < 100 | < 100 | < 100 | CNCC(=O)N[C@H]1CC(=O)N2CCCC(CCOc3ccc(C)c(c3)CNC(=O)[C@H](CCc3ccccc3)NC1=O)C2 (stereo partly drawn) [Compound 129, N-((9S,12S)-5^4-methyl-8,11,14-trioxo-9-phenethyl-4-oxa-7,10-diaza-1(3,1)-piperidina-5(1,3)-benzenacyclotetradecaphane-12-yl)-2-(methylamino)acetamide] |
| > 5000 | 500 to 1000 | 500 to 1000 | CC(=O)N[C@H]1CCC(=O)N(C)CCCCOc2ccc(C)c(c2)CNC(=O)[C@H](CCc2ccccc2)NC1=O [Compound 282, N-((11S,14S)-1^4,7-dimethyl-8,12,15-trioxo-1^4-phenethyl-2-oxa-7,13,16-triaza-1(1,3)-benzenacycloheptadecaphane-11-yl)acetamide] |
| < 100 | < 100 | < 100 | CC(=O)N[C@H]1CC(=O)N2CCCC(CCOc3ccc(C)c(c3)CNC(=O)C(c3cnn(CCCS(=O)(=O)O)c3)NC1=O)C2 (stereo partly drawn) [Compound 571, 3-(4-((12S)-12-acetamido-5^4-methyl-8,11,14-trioxo-4-oxa-7,10-diaza-1(3,1)-piperidina-5(1,3)-benzenacyclotetradecaphane-9-yl)-1H-pyrazol-1-yl)propane-1-sulfonic acid] |
| < 100 | < 100 | < 100 | Cc1ccc2cc1CNC(=O)[C@H](CCc1ccccc1)NC(=O)[C@@H](NC(=O)C(C)(C)C#N)CC(=O)N1CCCC(CCO2)C1 (stereo partly drawn) [Compound 294, 2-cyano-2-methyl-N-((9S,12S)-54-methyl-8,11,14-trioxo-9-phenethyl-4-oxa-7,10-diaza-1(3,1)-piperidina-5(1,3)-benzenacyclotetradecaphane-12-yl)propanamide] |
| < 100 | < 100 | < 100 | CC(=O)N[C@H]1CCCC(=O)N2CCCC(CCOc3ccc(C)c(c3)CNC(=O)[C@H](CCc3ccccc3)NC1=O)C2 (stereo partly drawn) [Compound 213, N-((9S,12S)-5^4-methyl-8,11,16-trioxo-9-phenethyl-4-oxa-7,10-diaza-1(3,1)-piperidina-5(1,3)-benzenacyclohexadecaphane-12-yl)acetamide] |
| < 100 | < 100 | < 100 | CO[C@@H](C(=O)N[C@H]1CC(=O)N2CCCC(CCOc3ccc(C)c(c3)CNC(=O)[C@H](CCc3ccccc3)NC1=O)C2)c1ccccc1 (stereo partly drawn) [Compound 86, (2R)-2-methoxy-N-((9S,12S)-5^4-methyl-8,11,14-trioxo-9-phenethyl-4-oxa-7,10-diaza-1(3,1)-piperidina-5(1,3)-benzenacyclotetradecaphane-12-yl)-2-phenylacetamide] |
| < 100 | < 100 | < 100 | Cc1ccc2cc1CNC(=O)[C@H](CCc1ccccc1)NC(=O)[C@@H](NC(=O)Cc1cccc(N)c1)CC(=O)N1CCCC(CCO2)C1 (stereo partly drawn) [Compound 127, 2-(3-aminophenyl)-N-((9S,12S)-5^4-methyl-8,11,14-trioxo-9-phenethyl-4-oxa-7,10-diaza-1(3,1)-piperidina-5(1,3)-benzenacyclotetradecaphane-12-yl)acetamide] |
| < 100 | < 100 | < 100 | COc1cccc(CC(=O)N[C@H]2CC(=O)N3CCCC(CCOc4ccc(C)c(c4)CNC(=O)[C@H](CCc4ccccc4)NC2=O)C3)c1 (stereo partly drawn) [Compound 85, 2-(3-methoxyphenyl)-N-((9S,12S)-5^4-methyl-8,11,14-trioxo-9-phenethyl-4-oxa-7,10-diaza-1(3,1)-piperidina-5(1,3)-benzenacyclotetradecaphane-12-yl)acetamide] |
| < 100 | < 100 | < 100 | Cc1ccc2cc1CNC(=O)[C@H](CCc1ccccc1)NC(=O)[C@@H](NC(=O)C1CCCc3ccccc31)CC(=O)N1CCCC(CCO2)C1 (stereo partly drawn) [Compound 82, N-((9S,12S)-5^4-methyl-8,11,14-trioxo-9-phenethyl-4-oxa-7,10-diaza-1(3,1)-piperidina-5(1,3)-benzenacyclotetradecaphane-12-yl)-1,2,3,4-tetrahydronaphthalene-1-carboxamide] |
| < 100 | < 100 | < 100 | Cc1ccc2cc1CNC(=O)[C@H](CCc1ccccc1)NC(=O)[C@@H](NC(=O)C1(F)CCNCC1)CC(=O)N1CCCC(CCO2)C1 (stereo partly drawn) [Compound 134, 4-fluoro-N-((9S,12S)-5^4-methyl-8,11,14-trioxo-9-phenethyl-4-oxa-7,10-diaza-1(3,1)-piperidina-5(1,3)-benzenacyclotetradecaphane-12-yl)piperidine-4-carboxamide] |
| < 100 | < 100 | < 100 | Cc1ccc2cc1CNC(=O)[C@H](CCc1ccccc1)NC(=O)[C@@H](NC(=O)c1cc3cc(C(F)(F)F)ccc3n1C)CC(=O)N1CCCC(CCO2)C1 (stereo partly drawn) [Compound 87, 1-methyl-N-((9S,12S)-5^4-methyl-8,11,14-trioxo-9-phenethyl-4-oxa-7,10-diaza-1(3,1)-piperidina-5(1,3)-benzenacyclotetradecaphane-12-yl)-5-(trifluoromethyl)-1H-indole-2-carboxamide] |

| Structure (SMILES) | IC50 [1] [nM] | IC50 [2] [nM] | IC50 [3] [nM] |
| --- | --- | --- | --- |
| COCCOCCOCCOC(=O)N[C@H]1CC(=O)N2CCCC(CCOc3ccc(C)c(c3)CNC(=O)[C@H](CCc3ccccc3)NC1=O)C2 (stereo partly drawn) [Compound 220, 2-(2-(2-methoxyethoxy)ethoxy)ethyl ((9R,12R)-5^4-methyl-8,11,14-trioxo-9-phenethyl-4-oxa-7,10-diaza-1(3,1)-piperidina-5(1,3)-benzenacyclotetradecaphane-12-yl)carbamate] | < 100 | < 100 | < 100 |
